Each structure is given as a SMILES string. Positions of bridges follow the written chain, without caps; N, C: chain ends. Non-standard residues stand in square brackets, D forms with d. Residues, ends and D or L forms follow the SMILES beside them. Mpa = O=C(O)CCS

A short description of series [1]: Retardation factor of the compound in ethyl acetate-pyridine-acetic acid-water (5:5:1:3 v/v) by TLC analysis. Conditions: buffer. It is filed as physicochemical.
Series [2] in a line: Retardation factor of the compound in butan-1-ol-water (1:1 v/v) by TLC analysis. It is filed as physicochemical. The settings on record: buffer.
The species entered for series [3] is Rattus norvegicus. In words: Ratio of antidiuretic activity in rat to vasopressor activity in rat. Also on record: species or system Urine.
The nature of series [4]: Oxytocic activity in rat uterus in presence of Mg2+. It is filed as functional.
Series [5] is filed under the species Rattus norvegicus. Put plainly: Vasopressor activity in rat. It is filed as organism-based. The settings on record: in vivo.
The nature of series [6]: Retardation factor of the compound in butan-1-ol-acetic acid-water (4:1:5 v/v) by TLC analysis. It is filed as physicochemical. The settings on record: buffer.
Series [7] in a line: Oxytocic activity in rat uterus in absence of Mg2+. It is filed as functional.
The test system of series [8] is Rattus norvegicus. In words: Antidiuretic activity in iv dosed rat. It is filed as functional, Urine.
For series [9], the species on record is Rattus norvegicus. Put plainly: Ratio of antidiuretic activity in Brattleboro rat to vasopressor activity in rat. Also on record: species or system Urine.
The test system of series [10] is Rattus norvegicus. In words: Antidiuretic activity in sc dosed Brattleboro rat assessed as spontaneous urine output measured every 1 hr for 24 hrs. It is filed as functional.

On to `CC(C)[C@@H]1NC(=O)[C@H](Cc2ccccc2)NC(=O)[C@H](Cc2ccc(O)cc2)NC(=O)[C@@H](O)CSSC[C@@H](C(=O)N2CCC[C@H]2C(=O)N[C@H](CCCN=C(N)N)C(=O)NCC(N)=O)NC(=O)[C@H](CC(N)=O)NC1=O`, for which the Rf in series [1] is recorded as 0.85; in series [2] it was 0.48; in series [6] it was 0.68. Further, the Ratio in series [3] is on record as more than 45000. In addition, the Activity in series [4] is given as 2.8 U/mg; in series [5] it was less than 0.02 U/mg; in series [7], 1.1 U/mg; in series [8], 892 U/mg.

Consider `NC(=O)CC[C@@H]1NC(=O)[C@H](Cc2ccccc2)NC(=O)[C@H](Cc2ccc(O)cc2)NC(=O)[C@@H](O)CSSC[C@@H](C(=O)N2CCC[C@H]2C(=O)N[C@@H](CCCN=C(N)N)C(=O)NCC(N)=O)NC(=O)[C@H](CC(N)=O)NC1=O`, for which the Rf in series [1] turned out to be 0.68; in series [2], 0.22; in series [6] it was 0.45. The Ratio in [3] worked out at 0.9. Further, the Activity in series [4] was found to be 96 U/mg; in [5], 549 U/mg; in [7] it was 31 U/mg; in [8] it was 467 U/mg.

As to `NC(=O)CC[C@@H]1NC(=O)[C@H](Cc2ccccc2)NC(=O)[C@H](Cc2ccc(O)cc2)NC(=O)[C@@H](N)CSSC[C@@H](C(=O)N2CCC[C@H]2C(=O)N[C@@H](CCCN=C(N)N)C(=O)NCC(N)=O)NC(=O)[C@H](CC(N)=O)NC1=O` [VASOPRESSIN], the Ratio in series [9] turned out to be 0.9. Further, the Activity in series [4] is reported as 57 U/mg; in series [5], 382 U/mg; in series [7], 16 U/mg; in series [10] it was 330 U/mg.

In the case of `CC(C)[C@@H]1NC(=O)[C@H](Cc2ccccc2)NC(=O)[C@H](Cc2ccc(O)cc2)NC(=O)CCSSC[C@@H](C(=O)N2CCC[C@H]2C(=O)N[C@H](CCCNC(=N)N)C(=O)NCC(N)=O)NC(=O)[C@H](CC(N)=O)NC1=O` ([Mpa]YFVNCP[dR]G-NH2; disulfide 1-6), the Ratio in series [9] is more than 123000. The Activity in series [4] is given as 2 U/mg; in [5] it was less than 0.01 U/mg; in series [7], 8 U/mg; in series [10], 1230 U/mg.

As for `N=C(N)NCCC[C@H](NC(=O)[C@@H]1CCCN1C(=O)[C@@H]1CSSCCC(=O)N[C@@H](Cc2ccc(O)cc2)C(=O)N[C@@H](Cc2ccccc2)C(=O)N[C@@H](CCC(N)=O)C(=O)N[C@@H](CC(N)=O)C(=O)N1)C(=O)NCC(N)=O` [DESMOPRESSIN], the Activity in [4] worked out at 167 U/mg; in series [7], 54 U/mg.

With `CC(C)[C@@H]1NC(=O)[C@H](Cc2ccccc2)NC(=O)[C@H](Cc2ccc(O)cc2)NC(=O)[C@@H](N)CSSC[C@@H](C(=O)N2CCC[C@H]2C(=O)N[C@H](CCCN=C(N)N)C(=O)NCC(N)=O)NC(=O)[C@H](CC(N)=O)NC1=O`, the Ratio in [3] worked out at 17650. Besides, the Activity was 0.9 U/mg in series [4], 0.037 U/mg in series [5], 0.6 U/mg in series [7] and 653 U/mg in [8].

Turning to `NC(=O)CC[C@@H]1NC(=O)[C@H](Cc2ccccc2)NC(=O)[C@H](Cc2ccc(O)cc2)NC(=O)[C@@H](O)CSSC[C@@H](C(=O)N2CCC[C@H]2C(=O)N[C@H](CCCN=C(N)N)C(=O)NCC(N)=O)NC(=O)[C@H](CC(N)=O)NC1=O`, the figures for the Rf in series [1], in series [2] and in series [6] were 0.68, 0.22 and 0.45, respectively. Moreover, in series [3], the Ratio is listed as 1030. Besides, the Activity in series [4] is 2.6 U/mg; in [5], 0.86 U/mg; in series [7] it was 4.3 U/mg; in series [8], 886 U/mg.

Source of the values: ChEMBL document CHEMBL3272351, “[1-(L-2-hydroxy-3-mercaptopropanoic acid)] analogues of arginine-vasopressin, [8-D-arginine]vasopressin, and [4-valine,8-D-arginine]vasopressin” (J Med Chem, 1977).
